# Measurements: patent US4411909A, “[(2-Oxo-3-tetrahydrothienylcarbamoyl)-alkylthio] acetic acids, their salts and esters, a process for preparation thereof and the pharmaceutical compositions containing same” (priority 1981, dated 1983)
# How the values were obtained:
# [1] = system: bronchial mucus; test: test of activity in the rabbit: production/secretion of bronchial mucus (tracheal cannula, technique of Scuri et al.); assay type: in vivo; conditions: for variation % of secretion of mucus with respect to controls: intravenous, 10 mg/kg, 4 hours following vs 4 hours preceding treatment, versus physiological solution controls
# Description: Rabbits were used weighing about 3 kg with a cannula implanted in the trachea according to the technique of Scuri et al., Boll. Chim. Farm., 119,(3), 1980. The quantity of mucus produced and excreted was recorded during the 4 hours preceding and the 4 hours following the treatment.
# [2] = system: damage provoked by the action of sulfur dioxide on the bronchi; test: test of mucolytic activity based on the inhalation of SO2 in the rat; assay type: in vivo
# Excerpt: In the test of mucolytic activity based on the inhalation of SO2 in the rat, the compounds of the present invention have shown a good mucolytic activity.
# [3] = acute toxicity in the mouse; conditions: in vivo
# [4] = acute toxicity in the rat; conditions: in vivo
# [5] = toxicity, overall statement; assay type: in vivo; conditions: in words
# [6] = intravenous, read-out: LD50 i.v.
Structure (SMILES),variation % of secretion of mucus with respect to controls [1] [%],"activity compared with reference product carbocysteine (mucus secretion) ([1]; i.v., same dose by weight (10 mg/kg))",regression of bronchial damage compared with carbocysteine ([2]; PV 144 oral 500 mg/kg vs carbocysteine 500 mg/kg (3.35 mmol/kg)),"regression of the damage provoked by sulfur dioxide on the bronchi ([2]; oral, 500 mg/kg (2 mmol/kg))","LD50 [3, 6] [mg/kg]","LD50 ([3]; oral, read-out: LD50 oral) [mg/kg]","LD50 [4, 6] [mg/kg]","LD50 ([4]; oral, read-out: LD50 oral) [mg/kg]",toxicity [5]
"N[C@@H](CSCC(=O)O)C(=O)O [carbocysteine, S-carboxymethylcysteine, reference compound]",51.8,,,,,,,,
"O=C(O)CSCC(=O)NC1CCSC1=O (stereo not shown) [PV 144, [(2-oxo-3-tetrahydrothienylcarbamoyl)-methylthio]acetic acid]",52.1,at least as active as the reference product,qualitatively and quantitatively equal,significant regression of the damage,> 3500,> 10000,> 3500,> 10000,virtually without toxicity
